The source of these data is PubChem BioAssay AID1259408 (Genetic Toxicology Data Bank (GENE-TOX), 2018).

The source made the active and inactive calls. How the calls were made is not given here.

This series has as its system GENE-TOX genotoxicity assays, various organisms and cells. The experiment in a line: GENE-TOX mutagenicity studies. The following applies: for call: Assay Type: In vivo carcinogenicity studies.
Setting [1] is: Species/Cell Type: Nonhuman, Assay Code: CCG+, Evaluation Type: Evaluation A (Pre-1980).
Setting [2] is: Species/Cell Type: Nonhuman, Assay Type: Sister-chromatid exchange (SCE) in vitro, Assay Code: SC2+D, Dose Response: With dose response, Evaluation Type: Evaluation B (Post-1980).
Where [3] appears, read: Species/Cell Type: Mammalian polychromatic erythrocytes, Assay Type: Micronucleus test, chromosome aberrations, Assay Code: MNTT, Evaluation Type: Evaluation B (Post-1980).
[4] abbreviates: Species/Cell Type: Escherichia coli WP2, Assay Type: Tryptophan reverse gene mutation, Assay Code: WP2-, Evaluation Type: Evaluation A (Pre-1980).
Where [5] appears, read: Species/Cell Type: Nonhuman, Assay Type: Sister-chromatid exchange (SCE) in vivo, Assay Code: SC3+, Evaluation Type: Evaluation B (Post-1980).
The mark [6] stands for this setting: Species/Cell Type: Syrian hamster embryo (SA7/SHE) cells, Assay Type: Cell transformation, viral enhanced, Assay Code: CT7+, Evaluation Type: Evaluation A (Pre-1980).
Setting [7] is: Species/Cell Type: Drosophila melanogaster, Assay Type: Sex-linked recessive lethal gene mutation, Assay Code: SRLT, Evaluation Type: Evaluation A (Pre-1980).
[8] abbreviates: Species/Cell Type: Salmonella typhimurium (one or more of the five standard strains: TA98, TA100, TA1535, TA1537, and TA1538), Assay Type: Histidine reverse gene mutation, Ames assay, Assay Code: SAL-, Evaluation Type: Evaluation A (Pre-1980).
Where [9] appears, read: Species/Cell Type: Aspergillus nidulans, Assay Type: Aneuploidy, chromosome aberrations, Assay Code: ASN+, Evaluation Type: Evaluation A (Pre-1980).
The mark [10] stands for this setting: Species/Cell Type: Aspergillus nidulans, Assay Type: Mitotic recombination, Assay Code: ASGT, Evaluation Type: Evaluation A (Pre-1980).

In the case of `O=c1[nH]c(=O)n([C@H]2C[C@H](O)[C@@H](CO)O2)cc1/C=C/Br`, the mutagenic call is, setting by setting: (Species/Cell Type: Human lymphocytes, Assay Type: Sister-chromatid exchange (SCE) in vitro, Assay Code: SCL+, Evaluation Type: Evaluation B (Post-1980)) “active; positive”; (Species/Cell Type: Human, Assay Type: Sister-chromatid exchange (SCE) in vitro, Assay Code: SC1+D, Dose Response: With dose response, Evaluation Type: Evaluation B (Post-1980)) “active; positive”.

For `Nc1ccc(Oc2ccc(N)c(Cl)c2)cc1Cl`, the call under setting [1] was “active; positive”.

Take `CCCCNC(=O)NS(=O)(=O)c1ccc(C)cc1`: the mutagenic call by setting is: (Species/Cell Type: Mammalian polychromatic erythrocytes, Assay Type: Micronucleus test, chromosome aberrations, Assay Code: MNT+, Evaluation Type: Evaluation A (Pre-1980)) “active; positive”; (Species/Cell Type: Nonhuman, Assay Type: Sister-chromatid exchange (SCE) in vivo, Assay Code: SC3+D, Dose Response: With dose response, Evaluation Type: Evaluation B (Post-1980)) “active; positive”.

As for `CN(N=O)C(=O)Nc1ccc(Cl)cc1`, the mutagenic call under setting [2] is “active; positive”.

As for `Cc1cc2ccccc2cn1`, the mutagenic call (Species/Cell Type: Salmonella typhimurium (one or more of the five standard strains: TA98, TA100, TA1535, TA1537, and TA1538), Assay Type: Histidine reverse gene mutation, Ames assay, Assay Code: SALT, Evaluation Type: Evaluation A (Pre-1980)) is “no conclusion”.

For `O.O.O.O.O.O.[Cl-].[Cl-].[Cl-].[Fe+3]`, the mutagenic call (Species/Cell Type: Nonhuman, Assay Type: Sister-chromatid exchange (SCE) in vitro, Assay Code: SC2-, Evaluation Type: Evaluation B (Post-1980)) was “inactive; negative”.

`O=c1ccc2c(cc(O)c3c4ccccc4nnc23)o1`: the mutagenic call under setting [3] is on record as “no conclusion”.

For the molecule `CNC(=O)Oc1cccc(C)c1`, the mutagenic call is, setting by setting: (Species/Cell Type: Bacillus subtilis (H17 vs M45T), Assay Type: Rec-assay, spot test, DNA effects (bacterial DNA repair), Assay Code: REX-, Evaluation Type: Evaluation A (Pre-1980)) “inactive; negative”; under setting [4], “inactive; negative”.

On to `C1N2CN3CN1CN(C2)C3`, for which the mutagenic call (Species/Cell Type: Escherichia coli polA (W3119 vs P3478), Assay Type: Rec-assay, DNA effects (bacterial DNA repair), Assay Code: RE1+, Evaluation Type: Evaluation A (Pre-1980)) was “active; positive”.

For `Cc1csc(NNC=O)n1`, the mutagenic call is, setting by setting: under setting [4], “inactive; negative”; (Species/Cell Type: Escherichia coli WP2 UVRA, Assay Type: Tryptophan reverse gene mutation, Assay Code: WPU-, Evaluation Type: Evaluation A (Pre-1980)) “inactive; negative”.

With `CCCN(CCC)N=O`, the mutagenic call (Species/Cell Type: Chinese hamster lung (V79) cells, Assay Type: Forward gene mutation at the HPRT or ouabain locus, Assay Code: V79+, Evaluation Type: Evaluation A (Pre-1980)) was “active; positive”; the mutagenic call (Species/Cell Type: Human diploid fibroblasts, Assay Type: Unscheduled DNA synthesis (UDS) in vitro, DNA effects, Assay Code: UDHT, Evaluation Type: Evaluation A (Pre-1980)) was “no conclusion”; the mutagenic call under setting [5] is “active; positive”; the mutagenic call (Species/Cell Type: Salmonella typhimurium (one or more of the five standard strains: TA98, TA100, TA1535, TA1537, and TA1538), Assay Type: Histidine reverse gene mutation, Ames assay, Assay Code: SAL+*, Activation: With metabolic activation, Evaluation Type: Evaluation A (Pre-1980)) was “active; positive”; the mutagenic call under setting [6] was “active; positive”. In addition, the call under setting [1] was “active; positive”.

Take `O=C(O)c1ccc(C(=O)O)cc1`: the mutagenic call (Species/Cell Type: Syrian hamster embryo (SA7/SHE) cells, Assay Type: Cell transformation, viral enhanced, Assay Code: CT7-, Evaluation Type: Evaluation A (Pre-1980)) is “inactive; negative”.

Regarding `Cc1ccccc1S(N)(=O)=O`, the mutagenic call is “no conclusion” under setting [7], “no conclusion” under setting [3] and “inactive; negative” under setting [8].

For the molecule `CN(N=O)C(C)(C)C`, the mutagenic call (Species/Cell Type: Chinese hamster lung (V79) cells, Assay Type: Forward gene mutation at the HPRT or ouabain locus, Assay Code: V79-, Evaluation Type: Evaluation A (Pre-1980)) is “inactive; negative”.

With `[S]=[Mo]=[S]`, the mutagenic call under setting [6] is “active; positive”.

As for `NC[C@H]1O[C@H](O[C@H]2[C@H](O)[C@@H](O[C@H]3O[C@H](CO)[C@@H](O)[C@H](N)[C@H]3O)[C@H](N)C[C@@H]2N)[C@H](O)[C@@H](O)[C@@H]1O`, the mutagenic call is, setting by setting: (Species/Cell Type: Bacillus subtilis (H17 vs M45T), Assay Type: Rec-assay, spot test, DNA effects (bacterial DNA repair), Assay Code: REXT, Evaluation Type: Evaluation A (Pre-1980)) “no conclusion”; (Species/Cell Type: Escherichia coli polA (W3119 vs P3478), Assay Type: Rec-assay, DNA effects (bacterial DNA repair), Assay Code: RE1-, Evaluation Type: Evaluation A (Pre-1980)) “inactive; negative”; (Species/Cell Type: Saccharomyces cerevisiae, Assay Type: Mitotic recombination or gene conversion, Assay Code: YEH-, Evaluation Type: Evaluation A (Pre-1980)) “inactive; negative”.

Regarding `Nc1cc2c(cn1)[nH]c1ccccc12`, the mutagenic call is “active; positive” (Species/Cell Type: Human, Assay Type: Sister-chromatid exchange (SCE) in vitro, Assay Code: SC1+, Evaluation Type: Evaluation B (Post-1980)) and “active; positive” under setting [2].

Take `C/C(=C/c1ccc(SC#N)cc1)[N+](=O)[O-]`: under “Species/Cell Type: Bacillus subtilis (H17 vs M45), Assay Type: Rec-assay, spot test, DNA effects (bacterial DNA repair), Assay Code: REW+, Evaluation Type: Evaluation A (Pre-1980)”, the mutagenic call is “active; positive”.

Consider `CS(C)=O`, for which the mutagenic call under setting [9] was “active; positive”; the mutagenic call under setting [10] is given as “no conclusion”; the mutagenic call (Species/Cell Type: Bacillus subtilis (H17 vs M45), Assay Type: Rec-assay, spot test, DNA effects (bacterial DNA repair), Assay Code: REWT, Evaluation Type: Evaluation A (Pre-1980)) was “no conclusion”; the mutagenic call (Species/Cell Type: Drosophila melanogaster, Assay Type: Aneuploidy, whole sex chromosome loss, chromosome aberrations, Assay Code: DAC-M, Evaluation Type: Evaluation A (Pre-1980)) was “inactive; negative”; the mutagenic call (Species/Cell Type: Drosophila melanogaster, Assay Type: Sex-linked recessive lethal gene mutation, Assay Code: SRL-, Evaluation Type: Evaluation A (Pre-1980)) is “inactive; negative”; the mutagenic call (Species/Cell Type: Drosophila melanogaster, Sex: Male, Assay Type: Heritable translocation test, chromosome aberrations, Assay Code: DHTT, Evaluation Type: Evaluation A (Pre-1980)) was “no conclusion”. The mutagenic call is, setting by setting: (Species/Cell Type: Escherichia coli polA (W3110 vs P3478), Assay Type: Rec-assay, DNA effects (bacterial DNA repair), Assay Code: RE2-, Evaluation Type: Evaluation A (Pre-1980)) “inactive; negative”; (Species/Cell Type: Escherichia coli polA (W3119 vs P3478), Assay Type: Rec-assay, DNA effects (bacterial DNA repair), Assay Code: RE1T, Evaluation Type: Evaluation A (Pre-1980)) “no conclusion”; (Species/Cell Type: Fischer rat embryo (RLV/1706) cells, Assay Type: Cell transformation, viral enhanced, Assay Code: CTR-, Evaluation Type: Evaluation A (Pre-1980)) “inactive; negative”; (Species/Cell Type: Human lymphocytes, Assay Type: Sister-chromatid exchange (SCE) in vitro, Assay Code: SCLT, Evaluation Type: Evaluation B (Post-1980)) “no conclusion”; (Species/Cell Type: Human, Assay Type: Sister-chromatid exchange (SCE) in vitro, Assay Code: SC1T, Evaluation Type: Evaluation B (Post-1980)) “no conclusion”; (Species/Cell Type: Mouse embryo (AKR/ME) cells, Assay Type: Cell transformation, Assay Code: CTK-, Evaluation Type: Evaluation A (Pre-1980)) “inactive; negative”. Moreover, the mutagenic call (Species/Cell Type: Neurospora crassa, Assay Type: Aneuploidy, chromosome aberrations, Assay Code: NEN-, Evaluation Type: Evaluation A (Pre-1980)) is “inactive; negative”; the mutagenic call (Species/Cell Type: Nonhuman, Assay Type: Sister-chromatid exchange (SCE) in vitro, Assay Code: SC2-, Evaluation Type: Evaluation A (Pre-1980)) was “inactive; negative”; the mutagenic call under setting [5] is “active; positive”; the mutagenic call (Species/Cell Type: Rodents, Sex: Male, Assay Type: Dominant lethal test, Assay Code: DLTT, Evaluation Type: Evaluation A (Pre-1980)) is listed as “no conclusion”; the mutagenic call (Species/Cell Type: Saccharomyces cerevisiae, Assay Type: Mitotic recombination or gene conversion, Assay Code: YEC+, Evaluation Type: Evaluation A (Pre-1980)) was “active; positive”; the mutagenic call under setting [8] was “inactive; negative”. Further, the mutagenic call is, setting by setting: (Species/Cell Type: Salmonella typhimurium, Assay Type: Forward and reverse gene mutation, host-mediated assay, Assay Code: HMA-, Evaluation Type: Evaluation A (Pre-1980)) “inactive; negative”; (Species/Cell Type: Syrian hamster embryo (SHE) cells, Assay Type: Cell transformation, clonal assay, Assay Code: CTC-, Evaluation Type: Evaluation A (Pre-1980)) “inactive; negative”. The call (Species/Cell Type: Nonhuman, Assay Code: CCGT, Evaluation Type: Evaluation A (Pre-1980)) was “no conclusion”.

Take `CCOC(=O)NC(=S)Nc1ccccc1NC(=S)NC(=O)OCC`: the mutagenic call under setting [9] is “active; positive” and the mutagenic call under setting [10] is recorded as “no conclusion”.

Take `CC(N)Cc1ccccc1` (centres undefined): the mutagenic call reads like this: (Species/Cell Type: Drosophila melanogaster, Assay Type: Aneuploidy, sex chromosome gain, chromosome aberrations, Assay Code: DAGT, Evaluation Type: Evaluation A (Pre-1980)) “no conclusion”; (Species/Cell Type: Drosophila melanogaster, Assay Type: Aneuploidy, whole sex chromosome loss, chromosome aberrations, Assay Code: DACT, Evaluation Type: Evaluation A (Pre-1980)) “no conclusion”; under setting [7], “no conclusion”; (Species/Cell Type: Mammalian polychromatic erythrocytes, Assay Type: Micronucleus test, chromosome aberrations, Assay Code: MNT+, Evaluation Type: Evaluation B (Post-1980)) “active; positive”.
